# ChEMBL document CHEMBL1126746, “Sulfonylmethanesulfonamide inhibitors of carbonic anhydrase” (J Med Chem, 1993)
# What was measured:
# [1] = Equilibrium dissociation constant was determined; format: ADME
# Carbonic anhydrase 2 = Carbonic anhydrase 2 (Homo sapiens, UniProt P00918)
# Description: In vitro inhibition of purified human erythrocyte carbonic anhydrase II
# [2] = Equilibrium dissociation constant of CA complex for enantiomer 2 of compound; format: ADME
# [3] = test system: Carbonic anhydrase (Oryctolagus cuniculus); assay: Ex vivo inhibition of carbonic anhydrase in homogenate of rabbit iris-ciliary body; expressed as volume/minute of 0.025 N NaOH required to maintain pH of assay mixture at 0.05 mg
# [4] = Equilibrium dissociation constant of CA complex for enantiomer 1 of compound; format: ADME
# [5] = test system: Carbonic anhydrase (Oryctolagus cuniculus); assay: Inhibition of carbonic anhydrase activity in a homogenate of rabbit iris-ciliary body at a dose of 0.25 mg (ex vivo)
# [6] = test system: Carbonic anhydrase (Oryctolagus cuniculus); assay: Ex vivo inhibition of carbonic anhydrase in homogenate of rabbit iris-ciliary body; expressed as volume/minute of 0.025 N NaOH required to maintain pH of assay mixture at 0.25 mg
# [7] = test system: Carbonic anhydrase (Oryctolagus cuniculus); assay: Inhibition of carbonic anhydrase activity in a homogenate of rabbit iris-ciliary body at a dose of 0.05 mg (ex vivo)
# Carbonic anhydrase = format: protein assay, Canis lupus familiaris
# Description: In vitro inhibition of crude dog red blood cell carbonic anhydrase
# Description for physchem: Acid dissociation constant was determined
IC50 (Carbonic anhydrase 2) [µM],pKa (physchem),SMILES,also measured
0.012,7.7,CCCCCCCCS(=O)(=O)C(Cl)S(N)(=O)=O (stereo not drawn),Kd [1]: 0.017 µM
0.003,7.5,CCCCCCCCS(=O)(=O)C(F)S(N)(=O)=O (stereo not drawn),Kd [2]: 0.00064 µM; CA activity ((ml of NaOH) min-1) [3]: 0.147; Kd [4]: 0.00357 µM; inhibition [5]: 91%; CA activity ((ml of NaOH) min-1) [6]: 0.043; inhibition [7]: 71%
0.4,9.1,NS(=O)(=O)CS(=O)(=O)c1ccc(O)cc1,
0.8,8.8,COc1ccc2c(c1)S(=O)(=O)C(S(N)(=O)=O)C2 (stereo not drawn),
1.3,,COCCOCCOCS(=O)(=O)CS(N)(=O)=O,
,,CCS(N)(=O)=O [ETHANESULFONIC ACID AMIDE],IC50 (Carbonic anhydrase): 1000 µM
0.2,,CCCCCCCCS(=O)(=O)C(Cl)(Cl)S(N)(=O)=O,
0.1,8.4,NS(=O)(=O)CS(=O)(=O)CCc1ccccc1,
1.2,9.4,NS(=O)(=O)CSCCCc1ccccc1,
0.022,9.4,CCCCCCCCS(=O)(=O)CS(N)(=O)=O,
2.5,8.9,CCCCCCCCS(=O)(=O)C(C)S(N)(=O)=O (stereo not drawn),
0.48,,CCCCCCCCSCS(N)(=O)=O,
2.9,10.1,NS(=O)(=O)CSc1ccc(O)cc1,
2,9.5,NS(=O)(=O)CSCCc1ccccc1,
0.19,8.4,NS(=O)(=O)CS(=O)(=O)CCCc1ccccc1,
